Tests used:
[1] = biological target: Mouse ERK2 protein (Mus musculus (Mouse), UniProt P63085); assay: Coupled MEK1/ERK2 IMAP assay or Active ERK2 IMAP assay; assay type: biochemical
[2] = biological target: ERK protein (Mus musculus, UniProt P63085); assay: TdF (Temperature Dependence Fluorescence, thermal shift) assay for ERK; assay type: binding; settings: Table 2; 3 μM ERK protein
Text: The SAR (Structure Activity Relationship) for ERK ligands covered by this invention was interrogated using the TdF (Temperature Dependence Fluorescence) assay or best known as thermal shift assay. (M. W. Pantoliano, et al., “High-density miniaturized thermal shift assays as a general strategy for drug discovery,” J. Biomol. Screen 6 (2001) 429-440) The TdF assay was mainly conducted in the 96-well based CHROMO-4 real time fluorescence plate reader (BioRad). The Sypro Orange (Sigma-Aldrich), environmentally sensitive fluorescence dye, was used to monitor the protein folding-unfolding transition. Protein-ligand binding was gauged by the change (or shift) in the unfolding transition temperature (ΔTm) acquired at protein alone with respect to protein in the presence of ligand of interest.
Compound of interest was first prepared in DMSO stock (typical concentration: 10 mM). […] Final percentage of DMSO resided in the sample was 2%. The sample plate was heated from 30° C. to 90° C. with thermal ramping rate of 1° C./min. The fluorescence signals were acquired with excitation and emission wavelengths centered at 490 and 560 nm respectively. The instrument thermal stability was ±0.2° C. The melting temperatures (Tm) for ERK protein under aforementioned conditions occurred at […] and 64.8±0.2° C. respectively.
The derivation of TdF-based ligand binding affinity constant (Kd) followed closely those previously formulated by Brandts and Lin. (J. F. Brandts, L.-N. Lin, “Study of strong to ultratight protein interactions using differential scanning calorimetry,” Biochemistry 29 (1990) 6927-6940). In brief, the binding constant of the ligand at the Tm is expressed as below:
[formula] where T0 is the midpoint of unfolding for unliganded protein and Tm is the midpoint of unfolding in presence of ligand. [LTm] is free ligand at Tm. The ΔHu and ΔCpu are the enthalpy of unfolding and heat capacity change of unfolding for the protein respectively. Following algorithm derived by Winsor and coworker, the T0, ΔHu and ΔCpu can be determined separately from nonlinear regression fitting the protein alone melting curve:
[formula] where F(T) is the observed fluorescence intensity at any temperature T, Yn, and Yu are the predicted fluorescence intensities for fully folded and unfolded protein, respectively; mn and mu are slope correction for changes in Yn and Yu with respect to changes in temperature (analogously replace T0 with Tm in the above equation for liganded protein to yield Tm). (Mayhood, T. W., Windsor, W. T., “Ligand binding affinity determined by temperature-dependent circular dichroism: Cyclin-dependent kinase 2 inhibitors,” Analytical Biochemistry 345 (2005) 187-197).
[formula] where ΔHL (T) is the van't Hoff enthalpy of ligand binding at temperature T and ΔCpL is the heat capacity upon ligand binding. For simplicity, the ΔCpL and ΔHL (T) were set to zero and -7 kcal/mol respectively. […]

[3] = Table 1, class symbols, 30 μM ATP

Mouse ERK2 protein, sequence (P63085 whole entry): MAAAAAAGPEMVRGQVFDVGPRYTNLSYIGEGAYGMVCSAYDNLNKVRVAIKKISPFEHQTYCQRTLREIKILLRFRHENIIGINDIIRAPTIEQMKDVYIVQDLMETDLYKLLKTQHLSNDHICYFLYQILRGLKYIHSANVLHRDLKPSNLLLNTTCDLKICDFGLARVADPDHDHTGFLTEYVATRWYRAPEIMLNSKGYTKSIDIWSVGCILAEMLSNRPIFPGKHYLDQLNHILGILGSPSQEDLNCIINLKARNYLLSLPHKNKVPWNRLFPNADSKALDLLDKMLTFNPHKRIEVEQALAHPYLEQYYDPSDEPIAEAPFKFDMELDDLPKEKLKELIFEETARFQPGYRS
ERK protein, sequence (P63085 2-358 limits assumed): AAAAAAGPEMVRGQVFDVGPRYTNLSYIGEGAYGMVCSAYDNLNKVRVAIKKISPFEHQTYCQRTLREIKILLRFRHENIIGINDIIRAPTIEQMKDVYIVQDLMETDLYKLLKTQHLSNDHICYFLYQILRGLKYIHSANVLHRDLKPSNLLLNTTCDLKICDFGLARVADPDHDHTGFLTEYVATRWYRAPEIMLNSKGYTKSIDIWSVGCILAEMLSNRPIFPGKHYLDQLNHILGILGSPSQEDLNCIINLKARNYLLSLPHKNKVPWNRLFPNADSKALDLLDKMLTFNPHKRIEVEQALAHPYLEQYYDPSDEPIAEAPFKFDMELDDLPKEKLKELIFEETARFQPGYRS

| SMILES | IC50 ([1]; Table 2, 30 μM ATP) | Kd [2] | IC50 [1, 3] |
| --- | --- | --- | --- |
| Cc1ccccc1[C@@H]1CN(C)C[C@H]1NC(=O)N1CCc2[nH]nc(-c3ccncc3)c2C1 [Compound 46, 1,4,6,7-tetrahydro-N-[1-methyl-4(R)-(2-methylphenyl)-3(S)-pyrrolidinyl]-3-(4-pyridinyl)-5H-pyrazolo[4,3-c]pyridine-5-carboxamide] | 0.89 nM | 0.7 nM | – |
| O=C(N[C@@H]1CCCN(Cc2ccccc2F)C1)N1CCc2[nH]nc(-c3ccncc3)c2C1 [Compound 48, N-[1-[(2-fluorophenyl)methyl]-3(R)-piperidinyl]-1,4,6,7-tetrahydro-3-(4-pyridinyl)-5H-pyrazolo[4,3-c]pyridine-5-carboxamide] | 0.65 nM | 0.37 nM | – |
| COc1cccc(F)c1CN1CCC[C@@H](NC(=O)N2CCc3[nH]nc(-c4ccncc4)c3C2)C1 [Compound 53, N-[1-[(2-fluoro-6-methoxyphenyl)methyl]-3(R)-piperidinyl]-1,4,6,7-tetrahydro-3-(4-pyridinyl)-5H-pyrazolo[4,3-c]pyridine-5-carboxamide] | 3.8 nM | 0.15 nM | < 20 nM |
| O=C(N[C@@H]1CCCN(Cc2c(F)cccc2F)C1)N1CCc2[nH]nc(-c3ccncc3)c2C1 [Compound 54, N-[1-[(2,6-difluorophenyl)methyl]-3(R)-piperidinyl]-1,4,6,7-tetrahydro-3-(4-pyridinyl)-5H-pyrazolo[4,3-c]pyridine-5-carboxamide] | 1.97 nM | 0.51 nM | – |
| O=C(N[C@@H]1CCCN(Cc2csc3ccccc23)C1)N1CCc2[nH]nc(-c3ccncc3)c2C1 [Compound 57, N-[1-(benzo[b]thien-3-ylmethyl)-3(R)-piperidinyl]-1,4,6,7-tetrahydro-3-(4-pyridinyl)-5H-pyrazolo[4,3-c]pyridine-5-carboxamide] | 0.5 nM | 0.3 nM | – |
| Cc1ccsc1CN1CCC[C@@H](NC(=O)N2CCc3[nH]nc(-c4ccncc4)c3C2)C1 [Compound 58, 1,4,6,7-tetrahydro-N-[1-[(3-methyl-2-thienyl)methyl]-3(R)-piperidinyl]-3-(4-pyridinyl)-5H-pyrazolo[4,3-c]pyridine-5-carboxamide] | 1.98 nM | 0.25 nM | – |
| Cc1ccc(CN2CCC[C@@H](NC(=O)N3CCc4[nH]nc(-c5ccncc5)c4C3)C2)s1 [Compound 59, 1,4,6,7-tetrahydro-N-[1-[(5-methyl-2-thienyl)methyl]-3(R)-piperidinyl]-3-(4-pyridinyl)-5H-pyrazolo[4,3-c]pyridine-5-carboxamide] | 1.78 nM | 1.51 nM | – |
| Cn1cc(CN2CCC[C@@H](NC(=O)N3CCc4[nH]nc(-c5ccncc5)c4C3)C2)c2ccccc21 [Compound 60, 1,4,6,7-tetrahydro-N-[1-[(1-methyl-1H-indol-3-yl)methyl]-3(R)-piperidinyl]-3-(4-pyridinyl)-5H-pyrazolo[4,3-c]pyndine-5-carboxamide] | 1.24 nM | 1.12 nM | – |
| Cn1c(CN2CCC[C@@H](NC(=O)N3CCc4[nH]nc(-c5ccncc5)c4C3)C2)cc2ccccc21 [Compound 61, 1,4,6,7-tetrahydro-N-[1-[(1-methyl-1H-indol-2-yl)methyl]-3(R)-piperidinyl]-3-(4-pyridinyl)-5H-pyrazolo[4,3-c]pyridine-5-carboxamide] | 0.3 nM | 0.47 nM | – |
| Cc1noc(-c2ccccc2)c1CN1CCC[C@@H](NC(=O)N2CCc3[nH]nc(-c4ccncc4)c3C2)C1 [Compound 75, 1,4,6,7-tetrahydro-N-[1-[(3-methyl-5-phenyl-4-isoxazolyl)methyl]-3(R)-piperidinyl]-3-(4-pyridinyl)-5H-pyrazolo[4,3-c]pyridine-5-carboxamide] | – | 1.36 nM | – |
| Cc1onc(-c2ccccc2)c1CN1CCC[C@@H](NC(=O)N2CCc3[nH]nc(-c4ccncc4)c3C2)C1 [Compound 76, 1,4,6,7-tetrahydro-N-[1-[(5-methyl-3-phenyl-4-isoxazolyl)methyl]-3(R)-piperidinyl]-3-(4-pyridinyl)-5H-pyrazolo[4,3-c]pyridine-5-carboxamide] | – | 1.55 nM | – |
| Cc1cc(-c2n[nH]c3c2CN(C(=O)N[C@H]2CN(Cc4c(F)cccc4F)CC(F)(F)C2)CC3)ccn1 [Compound 180, N-[1-[(2,6-difluorophenyl)methyl]-5,5-difluoro-3(R)-piperidinyl]-1,4,6,7-tetrahydro-3-(2-methyl-4-pyridinyl)-5H-pyrazolo[4,3-c]pyridine-5-carboxamide] | – | – | 21 to 100 nM |
| COc1cccc(F)c1CN1CCC[C@@H](NC(=O)N2CCc3[nH]nc(-c4ccc5c(c4)CCO5)c3C2)C1 [Compound 181, (R)-3-(2,3-dihydrobenzofuran-5-yl)-N-(1-(2-fluoro-6-methoxybenzyl)piperidin-3-yl)-6,7-dihydro-1H-pyrazolo[4,3-c]pyridine-5(4H)-carboxamide] | – | – | < 20 nM |
| O=C(N[C@@H]1CCCN(Cc2csc3ccccc23)C1)N1CCc2[nH]nc(-c3ccc4c(c3)CCO4)c2C1 [Compound 183, N-[1-(benzo[b]thien-3-ylmethyl)-3(R)-piperidinyl]-3-(2,3-dihydro-5-benzofuranyl)-1,4,6,7-tetrahydro-5H-pyrazolo[4,3-c]pyridine-5-carboxamide] | – | – | < 20 nM |
| Cc1nc2cc(-c3n[nH]c4c3CN(C(=O)N[C@@H]3CCCN(Cc5c(C)cccc5C)C3)CC4)ccc2s1 [Compound 184, N-[1-[(2,6-dimethylphenyl)methyl]-3(R)-piperidinyl]-1,4,6,7-tetrahydro-3-(2-methyl-5-benzothiazolyl)-5H-pyrazolo[4,3-c]pyridine-5-carboxamide] | – | – | 21 to 100 nM |

Continued, values first:

| IC50 ([1]; Table 2, 30 μM ATP) | Kd [2] | IC50 [1, 3] | SMILES |
| --- | --- | --- | --- |
| – | – | 21 to 100 nM | Cc1nc2ccc(-c3n[nH]c4c3CN(C(=O)N[C@@H]3CCCN(Cc5ccccc5)C3)CC4)cc2o1 [Compound 185, 1,4,6,7-tetrahydro-3-(2-methyl-6-benzoxazolyl)-N-[1-(phenylmethyl)-3(R)-piperidinyl]-5H-pyrazolo[4,3-c]pyridine-5-carboxamide] |
| – | – | 21 to 100 nM | COc1cccc(F)c1CN1CCC[C@@H](NC(=O)N2CCc3[nH]nc(-c4ccc5sc(C)nc5c4)c3C2)C1 [Compound 186, (R)-N-(1-(2-fluoro-6-methoxybenzyl)piperidin-3-yl)-3-(2-methylbenzo[d]thiazol-5-yl)-6,7-dihydro-1H-pyrazolo[4,3-c]pyridine-5(4H)-carboxamide] |
| – | – | 101 to 1000 nM | Cc1nc2ccc(-c3n[nH]c4c3CN(C(=O)N[C@@H]3CCCN(Cc5c(F)cccc5F)C3)CC4)cc2o1 [Compound 187, N-[1-[(2,6-difluorophenyl)methyl]-3(R)-piperidinyl]-1,4,6,7-tetrahydro-3-(2-methyl-6-benzoxazolyl)-5H-pyrazolo[4,3-c]pyridine-5-carboxamide] |
| – | – | 101 to 1000 nM | Cc1nc2cc(-c3n[nH]c4c3CN(C(=O)N[C@@H]3CCCN(Cc5c(F)cccc5F)C3)CC4)ccc2s1 [Compound 188, N-[1-[(2,6-difluorophenyl)methyl]-3(R)-piperidinyl]-1,4,6,7-tetrahydro-3-(2-methyl-5-benzothiazolyl)-5H-pyrazolo[4,3-c]pyridine-5-carboxamide] |
| – | – | < 20 nM | Cc1nc2ccc(-c3n[nH]c4c3CN(C(=O)N[C@@H]3CCCN(Cc5csc6ccccc56)C3)CC4)cc2o1 [Compound 189, N-[1-(benzo[b]thien-3-ylmethyl)-3(R)-piperidinyl]-1,4,6,7-tetrahydro-3-(2-methyl-6-benzoxazolyl)-5H-pyrazolo[4,3-c]pyridine-5-carboxamide] |
| – | – | 101 to 1000 nM | Cc1nc2cc(-c3n[nH]c4c3CN(C(=O)N[C@@H]3CCCN(Cc5ccccc5)C3)CC4)ccc2s1 [Compound 190, 1,4,6,7-tetrahydro-3-(2-methyl-5-benzothiazolyl)-N-[1-(phenylmethyl)-3(R)-piperidinyl]-5H-pyrazolo[4,3-c]pyridine-5-carboxamide] |
| – | – | < 20 nM | Cc1nc2ccc(-c3n[nH]c4c3CN(C(=O)N[C@@H]3CCCN(Cc5ccccc5F)C3)CC4)cc2o1 [Compound 191, N-[1-[(2-fluorophenyl)-methyl]-3(R)-piperidinyl]-1,4,6,7-tetrahydro-3-(2-methyl-6-benzoxazolyl)-5H-pyrazolo[4,3-c]pyridine-5-carboxamide] |
